# Test results taken from US20140357688A1, “METHOD FOR INHIBITING EZH2 EXPRESSION IN BREAST CANCER CELLS” (Yung Shin Pharm. Ind. Co., Ltd., priority 2013, published 2014).
# Tests used:
# [1] = system: EZH2; experiment: EZH2 ubiquitination assay; type: cell-based, human; conditions: 3 μM YC-1
# Method: (A) Cells were pretreated with cyclohexamide (30 μM) for 1 h and followed by induction with vehicle (DMSO) or YC-1 (3 μM) for indicated time. Cells were harvested for detection of protein expression. (B)(C) Cells were incubated with 3 μM YC-1 for 6 h in the presence of vehicle, 3 μM MG-132 or 30 μM NH4Cl. Cells were harvested for detection of protein expression (B) or cell viability assay (C). The levels of protein expression were quantitated and shown under blots. (D) After treatment of 3 μM YC-1 for indicated time, cells were harvested and lysed for immunoprecipitation and western blot analysis described in Materials and Methods.
# Cells were lysed with MLB buffer (25 mM HEPES, pH 7.5, 150 mM NaCl, 1% Igepal CA-630, 10 mM MgCl2, 1 mM EDTA, 2% glycerol, 1 mM Na3VO4, 1 mM NaF, 1 mM PMSF, 10 μg/ml of leupeptin, aprotinin, and pepstatin A). After sonication, cell lysates were centrifugated at 12,000×g for 10 min at 4° C. Supernatants were incubated with anti-EZH2 antibody (BD Biosciences) and protein A Sepharose beads (GE Health Care) overnight at 4° C. After washing with MLB buffer, precipitated proteins were boiled in 1× Laemmli sample buffer and then separated with SDS-PAGE. The ubiquitination levels of EZH2 were recognized by using anti-Ubiquitn monoclonal antibody.
# [2] = system: MDA-MB-468 xenograft; experiment: MDA-MB-468 breast cancer xenograft animal model; type: in vivo, Nu/Nu mice
# Method: MDA-MB-468 cells were used to inoculate Nu/Nu mice. (A, left) Tumor bearing mice were given vehicle (10 μl DMSO, CTL) or YC-1 (30 and 60 mg/kg/day) by ip treatment. (B, right) Tumor bearing mice were given vehicle (normal saline, CTL) or YC-1-succinate (YC-1-S; 20, 40, and 80 mg/kg/day) by oral administration. During treatment period, tumor volume and body weights of mice were measured once per 3 days. Data are expressed as mean of tumor volume (mm^3)±S.E.M. from 6 mice (YC-1 treatment) or 10 mice (YC-1-S treatment). Tumor weights (B) and body weights of mice (C) in control and YC-1/YC-1-S-treated groups were recorded.
# Nu/Nu female mice (four weeks old) were from National Laboratory Animal Center, Taipei, Taiwan. Mice were maintained under procedures and guidelines from the Institutional Animal Care and Use of the National Health Research Institutes. MDA-MB-468 breast cancer cells (5×10^6 cells per mouse) were suspended in 0.1 ml of Matrigel solution (50%, v/v, Matrigel in 1×PBS) and inoculated into the mammary fat pads of nude mice. When the tumor masses reached to 100 mm^3, the tumor bearing mice were randomly divided into different groups for different dosage of YC-1 treatments. The mice were given by intraperitoneal injection with YC-1 or oral administration of YC-1-succinate. Tumor size and body weights of mice were measured once per 3 days and tumor volume (mm^3) was calculated as the equation: length×[…]. At the end of experiments, mice were sacrificed and tumor nodules were dissected and weighted. Tumor tissues were subjected to western blot analysis.
# [3] = system: RbAp48; experiment: Western blot of PRC2 protein expression in MDA-MB-468 cells; type: cell-based, human; conditions: 24 h
# Method: (§1) (A)(B) Cells were treated with indicated concentration of YC-1 for 24 h (A) or 3 μM of YC-1 for indicated time (B). Cells were harvested and performed with western blotting analysis. […] The levels of protein expression were quantitated and shown under blots. (C) Cells were transfected with EZH2 shRNA for 0, 1, 2, 3, and 4 days and collected for determination of cell viability (left) and protein expression (right). (D)(E) After 4 days of EZH2 knockdown, cells were incubated with 3 μM YC-1 for 4 h and detected cell viability (D) and protein contents (E). (F) Tumor specimens were isolated and protein was extracted for western blot analysis.
# (§2) Cells were lysed in PBS containing proteinase inhibitor and phosphatase inhibitors and sonication. Protein concentration was measured using the Bio-Rad protein assay kit (Bio-Rad Laboratories, Hercules, Calif., USA). Lysate protein was separated by electrophoresis of SDS-PAGE and transferred to Immobilon P membrane (EMD Millipore). The membranes were incubated with appropriate primary antibodies and horseradish peroxidase-conjugated secondary antibodies (EMD Millipore). The signaling was visualized using Chemiluminescence substrate kit (EMD Millipore) and collected by the Luminesence image analyzer, LAS4000 (Fuji Photo Film Co., Tokyo, Japan). The band intensities were analyzed and quantified by the Multi Gauge software (Fuji Photo Film).
# [4] = system: EED; experiment: as above; type: cell-based, human; conditions: 24 h
# Method: as §1, §2
# [5] = system: SUZ12; experiment: as above; type: cell-based, human; conditions: 24 h
# Method: as §1, §2
structure (smiles),measurement,setting,value
"OCc1ccc(-c2nn(Cc3ccccc3)c3ccccc23)o1 [YC-1, 3-(5′-hydroxymethyl-2′-furyl)-1-benzyl indazole]",ubiquitination of EZH2,[1],time-dependently promoted the ubiquitination of EZH2
same,tumor growth,[2]; 30 and 60 mg/kg by intraperitoneal injection,significantly inhibited the tumor growth
same,body weights of mice,[2]; 30 and 60 mg/kg/day ip,not affected
same,tumor weight,[2]; 30 and 60 mg/kg/day ip,dose-dependently reduced tumor weight
same,RbAp48 protein expression,[3],effectively concentration-dependent suppression
same,EED protein expression,[4],no effect
same,SUZ12 protein expression,[5],effectively concentration-dependent suppression
